Data: ChEMBL document CHEMBL4033761 (ACS Med Chem Lett, 2017)
Values after ≈ are worked out from the molar mass of the structure shown.

Legend:
hERG (KCNH2) = hERG (KCNH2) (Homo sapiens, UniProt Q12809); test: in vitro
Description: Inhibition of human ERG at 11 uM by single shot IonWork assay relative to control

[1] = Solubility of compound in DMSO
[2] = Dissociation constant, pKa of the compound by UV absorbance method; assay type: physicochemical
[3] = Intrinsic clearance in human liver microsomes
[4] = Distribution coefficient, log D of compound at pH 7.4; conditions: octanol/water
[5] = Fraction unbound in human plasma
[6] = Apparent permeability of the compound across apical side to basolateral side in human Caco2 cells; conditions: Caco-2
[7] = Dissociation constant, pKa of the compound by potentiometric titretion method

hERG (KCNH2), sequence (Q12809 whole entry): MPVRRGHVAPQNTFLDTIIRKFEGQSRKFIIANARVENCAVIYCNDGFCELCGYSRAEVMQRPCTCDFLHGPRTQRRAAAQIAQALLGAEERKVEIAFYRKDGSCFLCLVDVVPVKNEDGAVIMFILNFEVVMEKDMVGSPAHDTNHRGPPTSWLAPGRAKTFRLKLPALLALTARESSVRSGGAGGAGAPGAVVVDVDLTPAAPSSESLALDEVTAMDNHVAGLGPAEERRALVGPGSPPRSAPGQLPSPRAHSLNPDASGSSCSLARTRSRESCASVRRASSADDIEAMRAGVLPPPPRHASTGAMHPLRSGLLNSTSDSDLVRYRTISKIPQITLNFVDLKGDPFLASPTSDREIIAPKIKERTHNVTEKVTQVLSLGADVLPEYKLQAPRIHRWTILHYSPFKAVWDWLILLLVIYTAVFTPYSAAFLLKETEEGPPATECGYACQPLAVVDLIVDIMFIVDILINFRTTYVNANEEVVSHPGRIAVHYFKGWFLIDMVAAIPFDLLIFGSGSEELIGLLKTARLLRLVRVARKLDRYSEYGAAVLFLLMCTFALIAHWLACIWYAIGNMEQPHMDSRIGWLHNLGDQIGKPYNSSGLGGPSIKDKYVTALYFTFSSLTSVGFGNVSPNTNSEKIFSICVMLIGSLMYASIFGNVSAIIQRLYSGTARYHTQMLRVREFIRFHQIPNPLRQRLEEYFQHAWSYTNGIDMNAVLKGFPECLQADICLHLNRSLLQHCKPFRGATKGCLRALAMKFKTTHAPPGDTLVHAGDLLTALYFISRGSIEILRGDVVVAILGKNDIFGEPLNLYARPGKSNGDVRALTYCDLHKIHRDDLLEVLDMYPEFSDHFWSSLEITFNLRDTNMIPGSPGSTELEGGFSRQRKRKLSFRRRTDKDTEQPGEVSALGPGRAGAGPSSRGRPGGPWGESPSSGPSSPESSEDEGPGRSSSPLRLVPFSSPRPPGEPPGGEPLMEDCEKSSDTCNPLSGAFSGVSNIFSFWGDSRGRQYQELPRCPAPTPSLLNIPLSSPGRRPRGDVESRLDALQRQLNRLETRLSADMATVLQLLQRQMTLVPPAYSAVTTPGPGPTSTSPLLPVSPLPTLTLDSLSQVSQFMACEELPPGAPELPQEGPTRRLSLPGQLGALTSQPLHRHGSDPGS

Row | SMILES | solubility [1] [µM] | pKa [2] | microsomal CLint ([3]; liver microsomes) [µL/min/mg] | logD [4] | fraction unbound [5] | Papp A→B [6] [×10⁻⁶ cm/s] | pKa [7] | microsomal CLint ([3]; microsomes) [µL/min/mg] | inhibition at 11 µM (hERG (KCNH2)) [%]
1 | N=S1(=O)c2ccccc2C(=O)N1c1ccccc1 (stereo not drawn) | 578 (≈ 149 µg/mL) | 8.3 | 93.5 | 1.3 | – | – | – | – | -25.6
2 | C[C@H](N[S@]1(=O)=NC(=O)c2ccccc21)c1ccccc1 | 13 (≈ 3.72 µg/mL) | 6.62 | < 3 | 1.4 | 0.014 | 63 | – | – | –
3 | O=C1N=S(=O)(Nc2ccccc2)c2ccccc21 (stereo not drawn) | 958 (≈ 247 µg/mL) | 4.1 | < 3 | -1.1 | 0.088 | 6.57 | – | – | 5.2
4 | C[C@H](NS1(=O)=NC(=O)c2ccccc21)c1ccccc1 (single isomer, unassigned) | 107 (≈ 30.6 µg/mL) | 6.55 | < 3 | 0.8 | 0.089 | 47 | – | – | –
5 | N=S1(=O)c2ccccc2C(=O)N1Cc1ccccc1 (stereo not drawn) | 946 (≈ 258 µg/mL) | 8.7 | 19.2 | 1.8 | – | 84.7 | – | – | -7.4
6 | O=S1(=O)N=C(Nc2ccccc2)c2ccccc21 | 7 (≈ 1.81 µg/mL) | – | 85.4 | 2 | 0.16 | – | – | – | 11.1
7 | O=S1(=O)N=C(NCc2ccccc2)c2ccccc21 | 89 (≈ 24.2 µg/mL) | – | < 3 | 1.9 | 0.2 | – | – | – | 2.8
8 | O=C1N=S(=O)(NCc2ccccc2)c2ccccc21 (stereo not drawn) | 869 (≈ 237 µg/mL) | 6.5 | < 3 | 0.8 | 0.12 | 70.7 | – | – | -1.9

Now from value to compound, other results behind:

Row | solubility [1] [µM] | pKa [2] | microsomal CLint ([3]; liver microsomes) [µL/min/mg] | logD [4] | fraction unbound [5] | Papp A→B [6] [×10⁻⁶ cm/s] | pKa [7] | microsomal CLint ([3]; microsomes) [µL/min/mg] | SMILES | inhibition at 11 µM (hERG (KCNH2)) [%]
9 | < 0.01 | – | – | -1.8 | – | – | – | – | O=C1c2ccccc2S(=O)(=O)N1Cc1ccccc1 | –
10 | < 13 | – | – | – | – | 125 | – | – | CCN1C(=O)c2ccccc2S1(=O)=O | 3.6
11 | 971 (≈ 204 µg/mL) | 11.7 | < 3 | 0.7 | 0.56 | 29.3 | – | – | CCNC1=NS(=O)(=O)c2ccccc21 | 18.4
12 | 512 (≈ 108 µg/mL) | 8.9 | < 3 | 0.7 | 0.83 | 92 | – | – | CCN1C(=O)c2ccccc2S1(=N)=O (stereo not drawn) | -4.7
13 | 798 (≈ 145 µg/mL) | 11.4 | < 3 | 0.2 | 0.48 | 7.39 | – | – | NC1=NS(=O)(=O)c2ccccc21 | –
14 | 947 (≈ 199 µg/mL) | 6.9 | < 3 | 0.1 | 0.41 | 26.8 | – | – | CCN=S1(=O)NC(=O)c2ccccc21 (stereo not drawn) | 1.3
15 | – | 5.7 | < 3 | – | 0.4 | – | – | – | NS1(=O)=NC(=O)c2ccccc21 (stereo not drawn) | –
16 | 838 (≈ 154 µg/mL) | – | – | < -0.1 | 0.37 | < 0.75 | 3.1 | < 3 | O=C1NS(=O)(=O)c2ccccc21 [SACCHARIN] | –
